Measurements published in PubChem BioAssay AID1259407 (Chemical Carcinogenesis Research Information System (CCRIS), 2018).
Active and inactive are the calls of the source. No rule for the calls is given here.

Tested on: CCRIS mutagenicity, Ames/micronucleus/aberration tests
Assay: CCRIS mutagenicity studies

Measured: mutagenic call

Nc1ccccc1
inactive: End Point: IN VITRO CHROMOSOMAL ABERRATIONS, Test System: CHINESE HAMSTER OVARY CELLS, Metabolic Activation: NONE inactive; negative | Test System: AMES SALMONELLA TYPHIMURIUM, Strain/Indicator: TA97, Metabolic Activation: NONE, Method: STANDARD PLATE inactive; negative | Test System: AMES SALMONELLA TYPHIMURIUM, Strain/Indicator: TA97, Metabolic Activation: RAT, LIVER, S-9, AROCLOR 1254, Method: STANDARD PLATE inactive; negative | Test System: AMES SALMONELLA TYPHIMURIUM, Strain/Indicator: TA98(NR), Metabolic Activation: NONE, Method: PREINCUBATION inactive; negative | Test System: AMES SALMONELLA TYPHIMURIUM, Strain/Indicator: TA98(NR), Metabolic Activation: RAT, LIVER, S-9, AROCLOR 1254, Method: PREINCUBATION inactive; negative | Test System: AMES SALMONELLA TYPHIMURIUM, Strain/Indicator: TA98, Metabolic Activation: HAMSTER, LIVER, S-9, AROCLOR 1254, Method: STANDARD PLATE inactive; negative | Test System: AMES SALMONELLA TYPHIMURIUM, Strain/Indicator: TA98, Metabolic Activation: HAMSTER, LIVER, S-9, Method: STANDARD PLATE inactive; negative | Test System: AMES SALMONELLA TYPHIMURIUM, Strain/Indicator: TA98, Metabolic Activation: MOUSE, LIVER, S-9, AROCLOR 1254, Method: STANDARD PLATE inactive; negative | Test System: AMES SALMONELLA TYPHIMURIUM, Strain/Indicator: TA98, Metabolic Activation: MOUSE, LIVER, S-9, Method: STANDARD PLATE inactive; negative | Test System: AMES SALMONELLA TYPHIMURIUM, Strain/Indicator: TA98, Metabolic Activation: NONE, Method: STANDARD PLATE inactive; negative | Test System: AMES SALMONELLA TYPHIMURIUM, Strain/Indicator: TA98, Metabolic Activation: PEA APICAL BUD S-9, Method: PREINCUBATION inactive; negative | Test System: AMES SALMONELLA TYPHIMURIUM, Strain/Indicator: TA98, Metabolic Activation: PEA APICAL BUD S-9, Method: STANDARD PLATE inactive; negative | Test System: AMES SALMONELLA TYPHIMURIUM, Strain/Indicator: TA98, Metabolic Activation: RAT, LIVER, S-9, AROCLOR 1254, Method: STANDARD PLATE inactive; negative | Test System: AMES SALMONELLA TYPHIMURIUM, Strain/Indicator: TA98, Metabolic Activation: RAT, LIVER, S-9, ETHANOL, Method: PREINCUBATION inactive; negative | Test System: AMES SALMONELLA TYPHIMURIUM, Strain/Indicator: TA98, Metabolic Activation: RAT, LIVER, S-9, PHENOBARBITAL, Method: PREINCUBATION inactive; negative | Test System: AMES SALMONELLA TYPHIMURIUM, Strain/Indicator: TA98, Metabolic Activation: RAT, LIVER, S-9, PYRAZOLE, Method: PREINCUBATION inactive; negative | Test System: AMES SALMONELLA TYPHIMURIUM, Strain/Indicator: TA98, Metabolic Activation: RAT, LIVER, S-9, Method: STANDARD PLATE inactive; negative | Test System: AMES SALMONELLA TYPHIMURIUM, Strain/Indicator: TA100(NR), Metabolic Activation: NONE, Method: PREINCUBATION inactive; negative | Test System: AMES SALMONELLA TYPHIMURIUM, Strain/Indicator: TA100(NR), Metabolic Activation: RAT, LIVER, S-9, AROCLOR 1254, Method: PREINCUBATION inactive; negative | Test System: AMES SALMONELLA TYPHIMURIUM, Strain/Indicator: TA100, Metabolic Activation: HAMSTER, LIVER, S-9, AROCLOR 1254, Method: STANDARD PLATE inactive; negative | Test System: AMES SALMONELLA TYPHIMURIUM, Strain/Indicator: TA100, Metabolic Activation: HAMSTER, LIVER, S-9, Method: STANDARD PLATE inactive; negative | Test System: AMES SALMONELLA TYPHIMURIUM, Strain/Indicator: TA100, Metabolic Activation: MOUSE, LIVER, S-9, AROCLOR 1254, Method: STANDARD PLATE inactive; negative | Test System: AMES SALMONELLA TYPHIMURIUM, Strain/Indicator: TA100, Metabolic Activation: MOUSE, LIVER, S-9, Method: STANDARD PLATE inactive; negative | Test System: AMES SALMONELLA TYPHIMURIUM, Strain/Indicator: TA100, Metabolic Activation: NONE, Method: STANDARD PLATE inactive; negative | Test System: AMES SALMONELLA TYPHIMURIUM, Strain/Indicator: TA100, Metabolic Activation: PEA APICAL BUD S-9, Method: PREINCUBATION inactive; negative | Test System: AMES SALMONELLA TYPHIMURIUM, Strain/Indicator: TA100, Metabolic Activation: PEA APICAL BUD S-9, Method: STANDARD PLATE inactive; negative | Test System: AMES SALMONELLA TYPHIMURIUM, Strain/Indicator: TA100, Metabolic Activation: RAT, LIVER, S-9, AROCLOR 1254, Method: PREINCUBATION inactive; negative | Test System: AMES SALMONELLA TYPHIMURIUM, Strain/Indicator: TA100, Metabolic Activation: RAT, LIVER, S-9, AROCLOR 1254, Method: STANDARD PLATE inactive; negative | Test System: AMES SALMONELLA TYPHIMURIUM, Strain/Indicator: TA100, Metabolic Activation: RAT, LIVER, S-9, ETHANOL, Method: PREINCUBATION inactive; negative | Test System: AMES SALMONELLA TYPHIMURIUM, Strain/Indicator: TA100, Metabolic Activation: RAT, LIVER, S-9, PHENOBARBITAL, Method: PREINCUBATION inactive; negative | Test System: AMES SALMONELLA TYPHIMURIUM, Strain/Indicator: TA100, Metabolic Activation: RAT, LIVER, S-9, PYRAZOLE, Method: PREINCUBATION inactive; negative | Test System: AMES SALMONELLA TYPHIMURIUM, Strain/Indicator: TA100, Metabolic Activation: RAT, LIVER, S-9, Method: STANDARD PLATE inactive; negative | Test System: AMES SALMONELLA TYPHIMURIUM, Strain/Indicator: TA102, Metabolic Activation: RAT, LIVER, S-9, AROCLOR 1254, Method: STANDARD PLATE inactive; negative | Test System: AMES SALMONELLA TYPHIMURIUM, Strain/Indicator: TA102, Metabolic Activation: RAT, LIVER, S-9, PYRAZOLE, Method: PREINCUBATION inactive; negative | Test System: AMES SALMONELLA TYPHIMURIUM, Strain/Indicator: TA1535, Metabolic Activation: HAMSTER, LIVER, S-9, AROCLOR 1254, Method: STANDARD PLATE inactive; negative | Test System: AMES SALMONELLA TYPHIMURIUM, Strain/Indicator: TA1535, Metabolic Activation: HAMSTER, LIVER, S-9, Method: STANDARD PLATE inactive; negative | Test System: AMES SALMONELLA TYPHIMURIUM, Strain/Indicator: TA1535, Metabolic Activation: MOUSE, LIVER, S-9, AROCLOR 1254, Method: STANDARD PLATE inactive; negative | Test System: AMES SALMONELLA TYPHIMURIUM, Strain/Indicator: TA1535, Metabolic Activation: MOUSE, LIVER, S-9, Method: STANDARD PLATE inactive; negative | Test System: AMES SALMONELLA TYPHIMURIUM, Strain/Indicator: TA1535, Metabolic Activation: NONE, Method: STANDARD PLATE inactive; negative | Test System: AMES SALMONELLA TYPHIMURIUM, Strain/Indicator: TA1535, Metabolic Activation: RAT, LIVER, S-9, AROCLOR 1254, Method: STANDARD PLATE inactive; negative | Test System: AMES SALMONELLA TYPHIMURIUM, Strain/Indicator: TA1535, Metabolic Activation: RAT, LIVER, S-9, PYRAZOLE, Method: PREINCUBATION inactive; negative
active: End Point: IN VITRO CHROMOSOMAL ABERRATIONS, Test System: CHINESE HAMSTER OVARY CELLS, Metabolic Activation: RAT, LIVER, S-9, AROCLOR 1254 active; positive | End Point: IN VITRO MICRONUCLEUS, Test System: CHL/IU CELLS, Metabolic Activation: RAT, LIVER, S-9, PHENOBARBITAL AND 5,6-BENZOFLAVONE active; positive | End Point: IN VIVO MICRONUCLEUS, Test System: BONE MARROW, Species: MOUSE, Strain/Sex: B6C3F1/MALE, Route: GAVAGE active; positive | End Point: In vivo chromosomal aberrations, Test System: Bone marrow erythrocytes, Species: Rat, Strain/Sex: PVG/Male, Route: Oral active; positive (structural changes) at 500 mg/kg (p<0.01) | End Point: In vivo micronucleus, Test System: Bone marrow erythrocytes, Species: Mouse, Strain/Sex: CRH/Male, Route: Intraperitoneal active; positive (p<0.05)
